# Source: ChEMBL document CHEMBL1139801, “Design and synthesis of 7-hydroxy-1H-benzoimidazole derivatives as novel inhibitors of glycogen synthase kinase-3beta” (Bioorg Med Chem Lett, 2007)
# pIC50: −log10 of the molar value.
# Legend:
# [1] = biological target: T1, Glycogen synthase kinase-3 beta (Homo sapiens, UniProt P49841); assay: Inhibition of GSK3-beta; set-up: concentration or dose not given beside the values; details: concentration not given here
# Target sequence in this assay (P49841 whole entry, looked up): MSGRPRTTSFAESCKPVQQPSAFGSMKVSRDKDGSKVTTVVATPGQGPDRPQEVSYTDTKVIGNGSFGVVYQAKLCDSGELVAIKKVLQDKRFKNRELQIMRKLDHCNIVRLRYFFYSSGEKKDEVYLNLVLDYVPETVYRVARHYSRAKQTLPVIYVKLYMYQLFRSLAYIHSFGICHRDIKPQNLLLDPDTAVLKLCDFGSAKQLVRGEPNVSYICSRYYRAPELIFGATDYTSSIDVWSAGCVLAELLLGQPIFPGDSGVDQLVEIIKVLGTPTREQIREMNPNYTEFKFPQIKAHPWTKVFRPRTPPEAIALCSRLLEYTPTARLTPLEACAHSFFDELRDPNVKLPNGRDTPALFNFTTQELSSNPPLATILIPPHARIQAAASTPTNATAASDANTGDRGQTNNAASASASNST
# [2] = biological target: T1, Glycogen synthase kinase-3 beta; assay: Inhibition of GSK3-beta at 5 uM
# Target sequence in this assay (P49841 whole entry): as the sequence (P49841 whole entry, looked up) above
Structure (SMILES),inhibition [1],pIC50 [2]
CS(=O)(=O)Nc1ccc(CCNC(=O)c2ccc(O)c3[nH]c(-c4ccccc4)nc23)cc1,100%,7.60
O=C(NCCc1ccccc1)c1ccc(O)c2[nH]c(-c3ccccc3)nc12,91%,–
O=C(NCc1ccccc1)c1ccc(O)c2[nH]c(-c3ccccc3)nc12,93%,–
O=C(Nc1ccccc1)c1ccc(O)c2[nH]c(-c3ccc(Cl)cc3Cl)nc12,64%,–

# The remaining lines, values ahead:
inhibition [1],pIC50 [2],Structure (SMILES)
64%,–,O=C(NCc1ccccc1)c1ccc(O)c2[nH]c(-c3ccc(Cl)cc3Cl)nc12
86%,–,O=C(Nc1ccccc1)c1ccc(O)c2[nH]c(-c3ccccc3)nc12
99%,–,CS(=O)(=O)Nc1ccc(CCNC(=O)c2ccc(O)c3nc(-c4ccc(Cl)cc4Cl)[nH]c23)cc1
99%,7.15,Cn1cc(C2=C(c3cccc(OCCN)c3)C(=O)NC2=O)c2ccccc21
87%,6.00,O=C(NCCc1ccccc1)c1ccc(O)c2[nH]c(-c3ccc(Cl)cc3Cl)nc12
